# Read-outs that look alike come from different tables or passages of the source.
# Assays:
# [1] = system: LLC-MK2 cells
# [2] = system: MPX Zaire (V79-1-005-Scab); test: organism not typed; format: cell-based, monkeypox; settings: for IC50: Vero
# [3] = system: CPX Brighton; test: organism not typed; format: cell-based, cowpox; settings: for IC50: LLC-MK2, read-out: IC50 CPX LLC-MK2
# [4] = system: VAR-GAR (1966 Brazil Garcia isolate of VAR minor); test: organism not typed; format: cell-based, variola minor; settings: for IC50: LLC-MK2, read-out: IC50 VAR-GAR LLC-MK2
# [5] = system: VAR-YAM (1946 Japan Yamada isolate of VAR major); test: organism not typed; format: cell-based, variola major; settings: for IC50: Vero
# [6] = system: VAR-BSH (1975 Bangladesh isolate of VAR major); test: organism not typed; format: cell-based, variola major; settings: for IC50: Vero
# [7] = system: VAC; set-up: species or system mice; settings: mouse, in vivo
# [8] = system: VAR-YAM (1946 Japan Yamada isolate of VAR major); test: organism not typed; format: cell-based, variola major; settings: for IC50: LLC-MK2, read-out: IC50 VAR-YAM LLC-MK2
# [9] = system: CPX Brighton; test: organism not typed; format: cell-based, cowpox; settings: for IC50: Vero
# [10] = system: VAC Copenhagen; test: microbe, parasite or virus in culture; format: cell-based, vaccinia virus; settings: for IC50: Orthopoxvirus vaccinia, LLC-MK2, read-out: IC50 VAC LLC-MK2
# [11] = system: VAC Copenhagen; test: microbe, parasite or virus in culture; format: cell-based, vaccinia virus; settings: for IC50: Orthopoxvirus vaccinia, Vero, read-out: IC50 VAC Vero
# [12] = system: MPX Zaire (V79-1-005-Scab); test: organism not typed; format: cell-based, monkeypox; settings: for IC50: LLC-MK2, read-out: IC50 MPX LLC-MK2
# [13] = system: CPX; set-up: species or system mice; settings: mouse, in vivo
# [14] = system: VAR-BSH (1975 Bangladesh isolate of VAR major); test: organism not typed; format: cell-based, variola major; settings: for IC50: LLC-MK2, read-out: IC50 VAR-BSH LLC-MK2
# [15] = system: Vero cells
# [16] = system: VAR-GAR (1966 Brazil Garcia isolate of VAR minor); test: organism not typed; format: cell-based, variola minor; settings: for IC50: Vero
# [17] = system: DNA polymerase of CMV versus human DNA polymerase α; settings: cited from earlier work
# [18] = system: orthopoxviruses (VAR-BSH, VAR-YAM, VAR-GAR, MPX, CPX, VAC); test: organism not typed; format: cell-based
# [19] = system: VAC; test: microbe, parasite or virus in culture; format: cell-based; settings: Orthopoxvirus vaccinia, read-out: IC50 against VAC
# [20] = system: VAR isolate V77-1605; test: organism not typed; format: cell-based, variola; settings: Vero, read-out: IC50, VAR isolate V77-1605
# [21] = system: VAR isolate V74-227; test: organism not typed; format: cell-based, variola; settings: Vero, read-out: IC50, VAR isolate V74-227
# [22] = system: VAR isolate Minn124; test: organism not typed; format: cell-based, variola minor; settings: Vero, read-out: IC50, VAR isolate Minn124
# [23] = system: VAR isolate Heidelberg; test: organism not typed; format: cell-based, variola; settings: Vero, read-out: IC50, VAR isolate Heidelberg
# [24] = system: VAR isolate 7125; test: organism not typed; format: cell-based, variola; settings: Vero, read-out: IC50, VAR isolate 7125
# [25] = system: VAR isolate 7124; test: organism not typed; format: cell-based, variola; settings: Vero, read-out: IC50, VAR isolate 7124
# [26] = system: VAR isolate Rafig Lahore; test: organism not typed; format: cell-based, variola; settings: Vero, read-out: IC50, VAR isolate Rafig Lahore
# [27] = system: VAR isolate 102; test: organism not typed; format: cell-based, variola; settings: Vero, read-out: IC50, VAR isolate 102
# [28] = system: all VAR isolates tested; test: organism not typed; format: cell-based, variola; settings: Vero, read-out: IC50, VAR mean
# [29] = system: VAR isolate K1629; test: organism not typed; format: cell-based, variola; settings: Vero, read-out: IC50, VAR isolate K1629
# [30] = system: VAR isolate Somalia; test: organism not typed; format: cell-based, variola; settings: Vero, read-out: IC50, VAR isolate Somalia
# [31] = system: VAR isolate Rumbec; test: organism not typed; format: cell-based, variola; settings: Vero, read-out: IC50, VAR isolate Rumbec
# [32] = system: VAR isolate Higgins; test: organism not typed; format: cell-based, variola; settings: Vero, read-out: IC50, VAR isolate Higgins
# [33] = system: VAR isolate Hinden; test: organism not typed; format: cell-based, variola; settings: Vero, read-out: IC50, VAR isolate Hinden
# [34] = system: VAR isolate V72-119; test: organism not typed; format: cell-based, variola; settings: Vero, read-out: IC50, VAR isolate V72-119
# [35] = system: VAR isolate V73-225; test: organism not typed; format: cell-based, variola; settings: Vero, read-out: IC50, VAR isolate V73-225
# [36] = system: VAR isolate Shahzaman; test: organism not typed; format: cell-based, variola; settings: Vero, read-out: IC50, VAR isolate Shahzaman
# [37] = system: VAR isolate V68-59; test: organism not typed; format: cell-based, variola minor; settings: Vero, read-out: IC50, VAR isolate V68-59
# [38] = system: VAR isolate Iran 2602; test: organism not typed; format: cell-based, variola; settings: Vero, read-out: IC50, VAR isolate Iran 2602
# [39] = system: VAR isolate Butler; test: organism not typed; format: cell-based, variola minor; settings: Vero, read-out: IC50, VAR isolate Butler
# [40] = system: VAR isolate V70-46; test: organism not typed; format: cell-based, variola; settings: Vero, read-out: IC50, VAR isolate V70-46
# [41] = system: VAR isolate Jee; test: organism not typed; format: cell-based, variola; settings: Vero, read-out: IC50, VAR isolate Jee
# [42] = system: VAR isolate Eth17; test: organism not typed; format: cell-based, variola; settings: Vero, read-out: IC50, VAR isolate Eth17
# [43] = system: VAR isolate V70-222; test: organism not typed; format: cell-based, variola; settings: Vero, read-out: IC50, VAR isolate V70-222
# [44] = system: VAR isolate Horn; test: organism not typed; format: cell-based, variola; settings: Vero, read-out: IC50, VAR isolate Horn
# [45] = system: VAR isolate V73-175; test: organism not typed; format: cell-based, variola; settings: Vero, read-out: IC50, VAR isolate V73-175
smiles,measurement,setting,value
"Nc1nccc2c1ncn2[C@@H]1C[C@@H](CO)[C@H](O)[C@@H]1O [C-ca3-Ado, Carbocyclic 3-deazaadenosine]",Cytotoxicity TC50 LLC-MK2,[1],>100 µg/mL
same,IC50 MPX Vero,[2],0.4 µg/mL
same,Therapeutic index (TI) MPX Vero,[2],250
same,IC50 CPX LLC-MK2,[3],25.2 µg/mL
same,Therapeutic index (TI) CPX LLC-MK2,[3],4.0
same,IC50 VAR-GAR LLC-MK2,[4],4.4 µg/mL
same,Therapeutic index (TI) VAR-GAR LLC-MK2,[4],22.7
same,IC50 VAR-YAM Vero,[5],5.3 µg/mL
same,Therapeutic index (TI) VAR-YAM Vero,[5],18.9
same,IC50 VAR-BSH Vero,[6],1.2 µg/mL
same,Therapeutic index (TI) VAR-BSH Vero,[6],83.3
same,protective effect on VAC-infected mice,[7],modest protective effect
same,IC50 VAR-YAM LLC-MK2,[8],1.4 µg/mL
same,Therapeutic index (TI) VAR-YAM LLC-MK2,[8],71.4
same,IC50 CPX Vero,[9],>100 µg/mL
same,Therapeutic index (TI) CPX Vero,[9],1.0
same,IC50 VAC LLC-MK2,[10],3.4 µg/mL
same,Therapeutic index (TI) VAC LLC-MK2,[10],29.4
same,IC50 VAC Vero,[11],1.2 µg/mL
same,Therapeutic index (TI) VAC Vero,[11],83.3
same,IC50 MPX LLC-MK2,[12],0.8 µg/mL
same,Therapeutic index (TI) MPX LLC-MK2,[12],125
same,protective effect on CPX-infected mice,[13],modest protective effect
same,IC50 VAR-BSH LLC-MK2,[14],1.6 µg/mL
same,Therapeutic index (TI) VAR-BSH LLC-MK2,[14],62.5
same,Cytotoxicity TC50 Vero,[15],>100 µg/mL
same,IC50 VAR-GAR Vero,[16],1.6 µg/mL
same,Therapeutic index (TI) VAR-GAR Vero,[16],62.5
"Nc1ccn(CC(CO)OCP(=O)(O)OP(=O)(O)OP(=O)(O)O)c(=O)n1 (stereo not shown) [Cidofovir diphosphate, cidofovir 5′-diphosphate]",lower concentration inhibiting DNA polymerase of CMV than human DNA polymerase α,[17],10 fold
"CC(C)(C)C(=O)OCOP(=O)(COCCn1cnc2c(N)ncnc21)OCOC(=O)C(C)(C)C [bis-POM-PMEA, 9-[2-[[bis[(pivaloyloxy)-methoxy]phosphinyl]methoxy]ethyl]adenine]",Cytotoxicity TC50 LLC-MK2,[1]; rhesus monkey,>100 µg/mL
same,inhibitory activity against the orthopoxviruses tested (in words),[18],Neither PMEA nor bis-POM-PMEA was effective
same,Therapeutic index (TI) MPX Vero,[2],1.0
same,IC50,[2]; read-out: IC50 MPX Vero,> 100 µg/mL
same,IC50,[19],55.1 µg/mL
same,Therapeutic index (TI) CPX LLC-MK2,[3],1.2
same,IC50,[3],86 µg/mL
same,Therapeutic index (TI) VAR-GAR LLC-MK2,[4],1.2
same,IC50,[4],85 µg/mL
same,Therapeutic index (TI) VAR-YAM Vero,[5],1.0
same,IC50,[5]; read-out: IC50 VAR-YAM Vero,> 100 µg/mL
same,Therapeutic index (TI) VAR-BSH Vero,[6],1.2
same,IC50,[6]; read-out: IC50 VAR-BSH Vero,84.2 µg/mL
same,Therapeutic index (TI) VAR-YAM LLC-MK2,[8],1.0
same,IC50,[8],> 100 µg/mL
same,Therapeutic index (TI) CPX Vero,[9],1.3
same,IC50,[9]; read-out: IC50 CPX Vero,75.5 µg/mL
same,Therapeutic index (TI) VAC LLC-MK2,[10],1.5
same,IC50,[10],66.2 µg/mL
same,Therapeutic index (TI) VAC Vero,[11],2.3
same,IC50,[11],44 µg/mL
same,Therapeutic index (TI) MPX LLC-MK2,[12],1.0
same,IC50,[12],> 100 µg/mL
same,Therapeutic index (TI) VAR-BSH LLC-MK2,[14],1.0
same,IC50,[14],> 100 µg/mL
same,Cytotoxicity TC50 Vero,[15]; African green monkey,>100 µg/mL
same,Therapeutic index (TI) VAR-GAR Vero,[16],1.1
same,IC50,[16]; read-out: IC50 VAR-GAR Vero,90 µg/mL
"Nc1ccn(C[C@H]2COP(=O)(O)CO2)c(=O)n1 [cHPMPC, 1-[(S)-2-hydroxy-2-oxo-1-[4,2-dioxaphosphorinan-5-yl]methyl]cytosine]",IC50,[20],22 µg/mL
same,Cytotoxicity TC50 LLC-MK2,[1]; rhesus monkey,>100 µg/mL
same,IC50,[18]; read-out: mean IC50 against the panel of viruses,21.6 ± 7.6 µg/mL
same,IC50,[21],9 µg/mL
same,Therapeutic index (TI) MPX Vero,[2],6.5
same,IC50,"[2]; read-out: IC50, MPX",21 µg/mL
same,IC50,[2]; read-out: IC50 MPX Vero,12.3 µg/mL
same,IC50,[22],9 µg/mL
same,IC50,[23],14 µg/mL
same,IC50,[24],24 µg/mL
same,Therapeutic index (TI) CPX LLC-MK2,[3],1.0
same,IC50,[3],> 100 µg/mL
same,IC50,[25],26 µg/mL
same,Therapeutic index (TI) VAR-GAR LLC-MK2,[4],16.9
same,IC50,[4],5.9 µg/mL
same,Therapeutic index (TI) VAR-YAM Vero,[5],2.8
same,IC50,"[5]; read-out: IC50, VAR isolate Yamada",31 µg/mL
same,IC50,[5]; read-out: IC50 VAR-YAM Vero,28.2 µg/mL
same,IC50,[26],18 µg/mL
same,IC50,[27],38 µg/mL
same,Therapeutic index (TI) VAR-BSH Vero,[6],3.2
same,IC50,"[6]; read-out: IC50, VAR isolate Bangladesh",17 µg/mL
same,IC50,[6]; read-out: IC50 VAR-BSH Vero,25.3 µg/mL
same,IC50,[28],17 ± 2 µg/mL
same,IC50,[29],25 µg/mL
same,IC50,[30],8 µg/mL
same,IC50,[31],16 µg/mL
same,IC50,[32],17 µg/mL
same,IC50,[33],19 µg/mL
same,Therapeutic index (TI) VAR-YAM LLC-MK2,[8],16.4
same,IC50,[8],6.1 µg/mL
same,IC50,[34],18 µg/mL
same,IC50,[35],9 µg/mL
same,IC50,[36],14 µg/mL
same,IC50,[37],20 µg/mL
same,Therapeutic index (TI) CPX Vero,[9],3.0
same,IC50,"[9]; read-out: IC50, CPX",52 µg/mL
same,IC50,[9]; read-out: IC50 CPX Vero,26.9 µg/mL
same,IC50,[38],7 µg/mL
same,IC50,[39],6 µg/mL
same,Therapeutic index (TI) VAC LLC-MK2,[10],22.7
same,IC50,[10],4.4 µg/mL
same,Therapeutic index (TI) VAC Vero,[11],4.4
same,IC50,[11],18.1 µg/mL
same,IC50,[40],13 µg/mL
same,Therapeutic index (TI) MPX LLC-MK2,[12],29.4
same,IC50,[12],3.4 µg/mL
same,Therapeutic index (TI) VAR-BSH LLC-MK2,[14],4.9
same,IC50,[14],20.3 µg/mL
same,IC50,[41],7 µg/mL
same,Cytotoxicity TC50 Vero,[15]; African green monkey,80.0 µg/mL
same,IC50,[42],17 µg/mL
same,Therapeutic index (TI) VAR-GAR Vero,[16],10.1
same,IC50,"[16]; read-out: IC50, VAR isolate Garcia",4 µg/mL
same,IC50,[16]; read-out: IC50 VAR-GAR Vero,7.9 µg/mL
same,IC50,[43],23 µg/mL
same,IC50,[44],12 µg/mL
same,IC50,[45],16 µg/mL

# Source: paper PMC9533837 (Antiviral Research, 2003)
